Test results from article PMC9279635 (Acta Pharmaceutica Sinica. B, 2021).
Like-named read-outs stand apart in the source and are kept apart here.

How the values were obtained:
Format in all cases: biochemical
[1] = molecular target: T1, DDR2 (Homo sapiens, UniProt Q16832); test: ELISA kinase assay, DDR2
T1 sequence (Q16832 22-855): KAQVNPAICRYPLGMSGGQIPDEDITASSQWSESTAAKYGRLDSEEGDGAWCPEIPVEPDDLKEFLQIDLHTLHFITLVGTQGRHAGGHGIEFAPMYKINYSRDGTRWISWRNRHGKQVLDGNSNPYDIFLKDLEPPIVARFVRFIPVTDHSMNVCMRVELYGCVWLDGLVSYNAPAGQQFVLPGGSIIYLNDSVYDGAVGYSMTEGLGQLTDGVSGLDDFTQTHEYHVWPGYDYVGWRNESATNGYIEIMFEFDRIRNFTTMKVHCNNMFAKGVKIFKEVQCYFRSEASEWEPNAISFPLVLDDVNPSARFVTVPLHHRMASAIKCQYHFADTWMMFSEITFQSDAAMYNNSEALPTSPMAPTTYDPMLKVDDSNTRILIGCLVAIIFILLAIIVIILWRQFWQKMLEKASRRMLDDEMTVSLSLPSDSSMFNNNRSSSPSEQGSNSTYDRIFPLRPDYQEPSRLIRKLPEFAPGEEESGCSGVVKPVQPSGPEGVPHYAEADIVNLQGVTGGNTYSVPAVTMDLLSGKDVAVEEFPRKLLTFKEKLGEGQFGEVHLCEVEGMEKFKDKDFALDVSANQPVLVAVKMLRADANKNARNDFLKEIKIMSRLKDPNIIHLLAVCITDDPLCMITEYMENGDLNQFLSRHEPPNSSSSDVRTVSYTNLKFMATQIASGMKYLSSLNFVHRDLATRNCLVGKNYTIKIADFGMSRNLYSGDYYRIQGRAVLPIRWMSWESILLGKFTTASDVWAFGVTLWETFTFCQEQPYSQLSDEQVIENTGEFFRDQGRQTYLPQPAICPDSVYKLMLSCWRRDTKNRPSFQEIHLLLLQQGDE

[2] = molecular target: T2, Flt-3 (Homo sapiens, UniProt P36888); test: ELISA kinase assay, Flt-3; settings: for inhibition at 0.1 µM: read-out: Flt-3 inhibition@100 nmol/L; for inhibition at 0.01 µM: read-out: Flt-3 inhibition @10 nmol/L
T2 sequence (P36888 27-993): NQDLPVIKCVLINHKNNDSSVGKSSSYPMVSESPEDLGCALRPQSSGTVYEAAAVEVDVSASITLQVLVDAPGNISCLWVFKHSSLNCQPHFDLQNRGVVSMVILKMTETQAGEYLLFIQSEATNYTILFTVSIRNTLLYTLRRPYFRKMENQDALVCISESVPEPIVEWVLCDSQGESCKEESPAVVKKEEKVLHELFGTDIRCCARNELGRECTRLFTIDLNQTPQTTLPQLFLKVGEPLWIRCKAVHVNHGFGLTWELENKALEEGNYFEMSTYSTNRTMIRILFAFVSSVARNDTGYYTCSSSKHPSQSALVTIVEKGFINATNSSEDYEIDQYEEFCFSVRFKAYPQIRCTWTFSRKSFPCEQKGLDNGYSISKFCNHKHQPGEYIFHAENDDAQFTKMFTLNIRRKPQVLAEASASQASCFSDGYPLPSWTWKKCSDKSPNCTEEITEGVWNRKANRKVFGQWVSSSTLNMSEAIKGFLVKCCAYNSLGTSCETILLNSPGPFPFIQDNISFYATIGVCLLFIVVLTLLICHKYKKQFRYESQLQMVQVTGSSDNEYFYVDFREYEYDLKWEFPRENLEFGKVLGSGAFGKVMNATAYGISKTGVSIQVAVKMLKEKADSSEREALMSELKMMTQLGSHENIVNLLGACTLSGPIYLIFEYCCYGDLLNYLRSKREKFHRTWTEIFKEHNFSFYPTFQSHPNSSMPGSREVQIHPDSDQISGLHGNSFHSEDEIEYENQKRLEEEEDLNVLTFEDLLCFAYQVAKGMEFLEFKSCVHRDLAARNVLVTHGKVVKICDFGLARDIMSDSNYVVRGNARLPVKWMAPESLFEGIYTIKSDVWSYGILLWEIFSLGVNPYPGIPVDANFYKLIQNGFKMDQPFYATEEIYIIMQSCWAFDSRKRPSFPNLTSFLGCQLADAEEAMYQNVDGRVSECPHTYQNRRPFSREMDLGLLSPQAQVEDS

[3] = molecular target: RET (Homo sapiens, UniProt P07949); test: ELISA kinase assay, RET; settings: for inhibition at 0.1 µM: read-out: RET inhibition @100 nmol/L; for inhibition at 0.01 µM: read-out: RET inhibition @10 nmol/L
[4] = DDR2 IC50, two separate experiments

RET, sequence (P07949 29-1114): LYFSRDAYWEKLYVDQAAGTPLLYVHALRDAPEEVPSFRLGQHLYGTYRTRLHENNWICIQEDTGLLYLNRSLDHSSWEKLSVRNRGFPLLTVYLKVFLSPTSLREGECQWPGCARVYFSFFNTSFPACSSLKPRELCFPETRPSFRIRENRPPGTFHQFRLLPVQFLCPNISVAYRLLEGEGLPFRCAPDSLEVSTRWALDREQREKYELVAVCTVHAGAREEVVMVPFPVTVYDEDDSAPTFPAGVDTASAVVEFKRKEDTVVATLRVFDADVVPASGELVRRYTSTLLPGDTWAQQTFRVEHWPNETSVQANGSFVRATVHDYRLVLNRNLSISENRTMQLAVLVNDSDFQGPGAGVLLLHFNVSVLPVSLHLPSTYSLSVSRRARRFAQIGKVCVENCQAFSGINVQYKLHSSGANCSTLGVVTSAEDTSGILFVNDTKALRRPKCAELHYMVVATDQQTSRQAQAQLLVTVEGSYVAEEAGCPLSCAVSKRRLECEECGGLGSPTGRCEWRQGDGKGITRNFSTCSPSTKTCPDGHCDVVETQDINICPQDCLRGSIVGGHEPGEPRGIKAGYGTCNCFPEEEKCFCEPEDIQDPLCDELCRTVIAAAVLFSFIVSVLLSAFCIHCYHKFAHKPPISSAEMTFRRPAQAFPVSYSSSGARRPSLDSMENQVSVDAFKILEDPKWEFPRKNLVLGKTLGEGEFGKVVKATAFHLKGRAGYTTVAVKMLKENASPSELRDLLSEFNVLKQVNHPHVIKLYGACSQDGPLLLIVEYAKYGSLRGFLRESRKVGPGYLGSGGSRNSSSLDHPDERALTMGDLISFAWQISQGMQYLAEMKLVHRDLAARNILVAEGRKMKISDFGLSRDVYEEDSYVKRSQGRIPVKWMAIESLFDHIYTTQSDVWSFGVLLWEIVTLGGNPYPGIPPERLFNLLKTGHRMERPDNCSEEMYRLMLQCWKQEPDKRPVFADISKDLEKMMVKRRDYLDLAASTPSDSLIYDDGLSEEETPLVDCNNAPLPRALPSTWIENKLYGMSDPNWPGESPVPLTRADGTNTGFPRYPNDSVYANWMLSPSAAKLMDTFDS

Row | Compound | IC50 [1, 4] [nM] | also measured
1 | Cc1ccc(C(=O)Nc2cccc(C(F)(F)F)c2)cc1-c1ccc2ccncc2c1 [Compound 11, 3-(Isoquinolin-7-yl)-4-methyl-N-(3-(trifluoromethyl)phenyl)benzamide] | 1.6 ± 0.1 | 
2 | Cc1ccc(C(=O)Nc2cccc(C(F)(F)F)c2)cc1-c1ccc2nc(Nc3cccc(N4CCN(C)CC4)c3)ncc2c1 [Compound 21, 4-Methyl-3-(2-((3-(4-methylpiperazin-1-yl)phenyl)amino)quinazolin-6-yl)-N-(3-(trifluoromethyl)phenyl)benzamide] | 6.3 ± 0.5 | 
3 | CCc1ccc(C(=O)Nc2cccc(C(F)(F)F)c2)cc1-c1ccc2nc(Nc3cnn(C)c3)ncc2c1 [Compound 32, 4-Ethyl-3-(2-((1-methyl-1H-pyrazol-4-yl)amino)quinazolin-6-yl)-N-(3-(trifluoromethyl)phenyl)benzamide] | 4.1 ± 0.7 | inhibition at 0.1 µM [2]: 61.8%; inhibition at 0.1 µM [3]: 77.1%
4 | N-(3-((3,5-Dimethylpiperazin-1-yl)methyl)-5-(trifluoromethyl)phenyl)-4-methyl-3-(2-((1-methyl-1H-pyrazol-4-yl)amino)quinazolin-6-yl)benzamide [Compound 29] |  | IC50 ([1]; read-out: DDR2 IC50, two separate experiments): 2.7 ± 0.2 nM; Flt-3 inhibition @10 nmol/L ([2]; 10 nmol/L): 93.8%; RET inhibition @10 nmol/L ([3]; 10 nmol/L): 91.6%
5 | Cc1ccc(C(=O)Nc2cccc(C(F)(F)F)c2)cc1-c1ccc2nc(N3CCN(C)CC3)ncc2c1 [Compound 19, 4-Methyl-3-(2-(4-methylpiperazin-1-yl)quinazolin-6-yl)-N-(3-(trifluoromethyl)phenyl)benzamide] | 42.4 ± 2.3 | 
6 | Cn1cc(Nc2ncc3cc(-c4cc(C(=O)Nc5cccc(C(F)(F)F)c5)ccc4C4CC4)ccc3n2)cn1 [Compound 35, 4-Cyclopropyl-3-(2-((1-methyl-1H-pyrazol-4-yl)amino)quinazolin-6-yl)-N-(3-(trifluoromethyl)phenyl)benzamide] |  | inhibition at 0.1 µM [2]: 37.1%; inhibition at 0.1 µM [3]: 50.7%
7 | Cc1ccc(C(=O)Nc2cccc(C(F)(F)F)c2)cc1-c1ccc2nc(Nc3ccc(N4CCN(C)CC4)cc3)ncc2c1 [Compound 20, 4-Methyl-3-(2-((4-(4-methylpiperazin-1-yl)phenyl)amino)quinazolin-6-yl)-N-(3-(trifluoromethyl)phenyl)benzamide] | 5.7 ± 0.3 | 
8 | Cc1ccc(C(=O)Nc2cccc(C(F)(F)F)c2)cc1-c1ccc2nc(NCCN3CCOCC3)ncc2c1 [Compound 18, 4-Methyl-3-(2-((2-morpholinoethyl)amino)quinazolin-6-yl)-N-(3-(trifluoromethyl)phenyl)benzamide] | 3.4 ± 0.7 | 
9 | Cc1ccc(C(=O)Nc2cccc(C(F)(F)F)c2)cc1-c1ccc2c(c1)NC(=O)C2 [Compound 9, 4-Methyl-3-(2-oxoindolin-6-yl)-N-(3-(trifluoromethyl)phenyl)benzamide] | 4.9 ± 1.1 | 
10 | Cc1ccc(C(=O)Nc2cc(CN3CCN(C)CC3)cc(C(F)(F)F)c2)cc1-c1ccc2nc(Nc3cnn(C)c3)ncc2c1 [Compound 25, 4-Methyl-3-(2-((1-methyl-1H-pyrazol-4-yl)amino)quinazolin-6-yl)-N-(3-((4-methylpiperazin-1-yl)methyl)-5-(trifluoromethyl)phenyl)benzamide] | 1.7 ± 0.3 | inhibition at 0.01 µM [2]: 93.5%; inhibition at 0.01 µM [3]: 93.9%
11 | Cc1ccc(C(=O)Nc2cccc(C(F)(F)F)c2)cc1-c1ccc2nc(N)ncc2c1 [Compound 15, 3-(2-Aminoquinazolin-6-yl)-4-methyl-N-(3-(trifluoromethyl)phenyl)benzamide] | 1.9 ± 0.4 | 
12 | Cc1ccc(C(=O)Nc2cccc(C(F)(F)F)c2)cc1-c1ccc2nc(NC3CCN(C)CC3)ncc2c1 [Compound 17, 4-Methyl-3-(2-((1-methylpiperidin-4-yl)amino)quinazolin-6-yl)-N-(3-(trifluoromethyl)phenyl)benzamide] | 10.5 ± 1 | 
13 | Cc1ccc(C(=O)Nc2cc(CN3C[C@H]4CC[C@@H](C3)N4C)cc(C(F)(F)F)c2)cc1-c1ccc2nc(Nc3cnn(C)c3)ncc2c1 [Compound 31, 4-Methyl-3-(2-((1-methyl-1H-pyrazol-4-yl)amino)quinazolin-6-yl)-N-(3-(((1R,5S)-8-methyl-3,8-diazabicyclo[3.2.1]octan-3-yl)methyl)-5-(trifluoromethyl)phenyl)benzamide] | 2.9 ± 0.2 | inhibition at 0.01 µM [2]: 96%; inhibition at 0.01 µM [3]: 95%
14 | Cc1ccc(C(=O)Nc2cccc(C(F)(F)F)c2)cc1-c1ccc2ncncc2c1 [Compound 13, 4-Methyl-3-(quinazolin-6-yl)-N-(3-(trifluoromethyl)phenyl)benzamide] | 2.6 ± 0.1 | 
15 | Cc1ccc(C(=O)Nc2cccc(C(F)(F)F)c2)cc1-c1ccc2cnccc2c1 [Compound 12, 3-(Isoquinolin-6-yl)-4-methyl-N-(3-(trifluoromethyl)phenyl)benzamide] | 36.5 ± 1 | 
16 | Cc1ccc(C(=O)Nc2cccc(C(F)(F)F)c2)cc1-c1ccc2nc(Nc3cnn(C)c3)nc(N)c2c1 [Compound 23, 3-(4-Amino-2-((1-methyl-1H-pyrazol-4-yl)amino)quinazolin-6-yl)-4-methyl-N-(3-(trifluoromethyl)phenyl)benzamide] | 6.5 ± 1.5 | 
17 | Cc1ccc(C(=O)Nc2cccc(C(F)(F)F)c2)cc1-c1ccc2nc(NC3CC3)ncc2c1 [Compound 16, 3-(2-(Cyclopropylamino)quinazolin-6-yl)-4-methyl-N-(3-(trifluoromethyl)phenyl)benzamide] | 9.9 ± 1 | 
18 | Cc1ccc(C(=O)Nc2cccc(C(F)(F)F)c2)cc1-c1ccc2ncnc(N)c2c1 [Compound 14, 3-(4-Aminoquinazolin-6-yl)-4-methyl-N-(3-(trifluoromethyl)phenyl)benzamide] | 3.8 ± 0.2 | 
19 | CC(C)c1ccc(C(=O)Nc2cccc(C(F)(F)F)c2)cc1-c1ccc2nc(Nc3cnn(C)c3)ncc2c1 [Compound 34, 4-Isopropyl-3-(2-((1-methyl-1H-pyrazol-4-yl)amino)quinazolin-6-yl)-N-(3-(trifluoromethyl)phenyl)benzamide] |  | inhibition at 0.1 µM [2]: 56.8%; inhibition at 0.1 µM [3]: 54.5%
20 | Cc1ccc(C(=O)Nc2cc(CN3CCN(C4CCCC4)CC3)cc(C(F)(F)F)c2)cc1-c1ccc2nc(Nc3cnn(C)c3)ncc2c1 [Compound 27, N-(3-((4-Cyclopentylpiperazin-1-yl)methyl)-5-(trifluoromethyl)phenyl)-4-methyl-3-(2-((1-methyl-1H-pyrazol-4-yl)amino)quinazolin-6-yl)benzamide] | 3.1 ± 1 | inhibition at 0.01 µM [2]: 94.4%; inhibition at 0.01 µM [3]: 92.8%
21 | Cc1ccc(C(=O)Nc2cc(CN3CCCN(C)CC3)cc(C(F)(F)F)c2)cc1-c1ccc2nc(Nc3cnn(C)c3)ncc2c1 [Compound 30, 4-Methyl-N-(3-((4-methyl-1,4-diazepan-1-yl)methyl)-5-(trifluoromethyl)phenyl)-3-(2-((1-methyl-1H-pyrazol-4-yl)amino)quinazolin-6-yl)benzamide] | 2.8 ± 0.2 | inhibition at 0.01 µM [2]: 97%; inhibition at 0.01 µM [3]: 93.2%
22 | Cc1ccc(C(=O)Nc2cccc(C(F)(F)F)c2)cc1-c1ccc2c(c1)COCC2 [Compound 10, 3-(Isochroman-7-yl)-4-methyl-N-(3-(trifluoromethyl)phenyl)benzamide] | 20.9 ± 5.2 | 
